Patent publication US20250034135A1, “ANTI-APOPTOTIC PROTEIN BCL-2 INHIBITOR, PHARMACEUTICAL COMPOSITION AND USES THEREOF” (HANGZHOU HEALZEN THERAPEUTICS CO., LTD., priority 2021, published 2025)

molecular target: BCL2 (Homo sapiens (Human), UniProt P10415); assay: Molecular level activity test of anti-apoptotic protein BCL2 (HTRF, binding to Bim peptide); settings: HTRF, binding of BCL2 to Bim peptide; read-out: BCL2 nM (inhibitory activity, IC50)
Summary of the method: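 HTRF readout; His-BCL2 + biotin-BIM peptide + cpd (2% DMSO in compound addition), 1 h; then anti-His + SA-XL665 detection reagents, 4 h RT.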

Sequence of BCL2 (P10415 whole entry): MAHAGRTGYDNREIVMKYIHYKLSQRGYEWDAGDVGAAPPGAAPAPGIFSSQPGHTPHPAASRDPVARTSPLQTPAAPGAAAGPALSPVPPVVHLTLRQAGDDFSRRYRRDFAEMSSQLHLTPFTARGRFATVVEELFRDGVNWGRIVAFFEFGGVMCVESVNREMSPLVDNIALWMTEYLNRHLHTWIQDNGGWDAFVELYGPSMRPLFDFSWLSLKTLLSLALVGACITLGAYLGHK

IC50, < 10 nM:
CC(C)c1ccccc1C1CN(C(C)C)CCN1C1CC2(CCN(c3ccc(C(=O)NS(=O)(=O)c4cc([N+](=O)[O-])c(NC[C@H]5CC[C@](C)(O)CC5)c5[nH]cnc45)c(Oc4cnc5[nH]ccc5c4)c3)CC2)C1 (stereo partly drawn) [compound 041, 2-((1H-pyrrolo[2,3-b]pyrid-5-yl)oxy)-N-((7-((((1r,4r)-4-hydroxy-4-methylcyclohexyl)methyl)amino)-6-nitro-1H-benzo[d]imidazol-4-yl)sulfonyl)-4-(2-(4-isopropyl-2-(2-isopropylphenyl)piperazin-1-yl)-7-azaspiro[3.5]non-7-yl)benzamide]
COc1ccc(CN2C[C@@H](c3ccccc3C(C)C)N(C3CC4(CCN(c5cc(Oc6cnc7[nH]ccc7c6)c(C(=O)NS(=O)(=O)c6ccc(NCC7(F)CCOCC7)c([N+](=O)[O-])c6)cc5F)CC4)C3)C[C@@H]2C)cc1 [compound 154, 2-((1H-pyrrolo[2,3-b]pyrid-5-yl)oxy)-5-fluoro-N-((4-(((4-fluorotetrahydro-2H-pyran-4-yl)methyl)amino)-3-nitrophenyl)sulfonyl)-4-(2-((2R,5S)-2-(2-isopropylphenyl)-4-(4-methoxybenzyl)-5-methylpiperazin-1-yl)-7-azaspiro[3.5]non-7-yl)benzamide]
CC(C)c1ccccc1[C@@H]1CCCN1C1CC2(CCN(c3cc(Oc4cnc5[nH]ccc5c4)c(C(=O)NS(=O)(=O)c4cc([N+](=O)[O-])c(NCC5(F)CCN(CC(F)(F)F)CC5)c5[nH]cnc45)cc3F)CC2)C1 [compound 032, (S)-2-((1H-pyrrolo[2,3-b]pyrid-5-yl)oxy)-5-fluoro-N-((7-(((4-fluoro-1-(2,2,2-trifluoroethyl)piperid-4-yl)methyl)amino)-6-nitro-1H-benzo[d]imidazol-4-yl)sulfonyl)-4-(2-(2-(2-isopropylphenyl)pyrrolidin-1-yl)-7-azaspiro[3.5]non-7-yl)benzamide]
CC(C)c1ccccc1[C@@H]1CCCN1C1CC2(CCN(c3cc(Oc4cnc5[nH]ccc5c4)c(C(=O)NS(=O)(=O)c4cc([N+](=O)[O-])c(NC[C@H]5C[C@@](C)(O)C5)c5[nH]cnc45)cc3F)CC2)C1 [compound 018, 2-((1H-pyrrolo[2,3-b]pyrid-5-yl)oxy)-5-fluoro-N-((7-((((1S,3S)-3-hydroxy-3-methylcyclobutyl)methyl)amino)-6-nitro-1H-benzo[d]imidazol-4-yl)sulfonyl)-4-(2-((S)-2-(2-isopropylphenyl)pyrrolidin-1-yl)-7-azaspiro[3.5]non-7-yl)benzamide]
COc1ccc(CN2CCN(C3CC4(CCN(c5ccc(C(=O)NS(=O)(=O)c6cc([N+](=O)[O-])c(NC[C@H]7CC[C@](C)(O)CC7)c7c6OC(C)(C)O7)c(Oc6cnc7[nH]ccc7c6)c5)CC4)C3)[C@H](c3ccccc3C(C)C)C2)cc1 [compound 163, 2-((1H-pyrrolo[2,3-b]pyrid-5-yl)oxy)-N-((7-((((1r, 4r)-4-hydroxy-4-methylcyclohexyl)methyl)amino)-2,2-dimethyl-6-nitrobenzo[d][1,3]dioxocyclopent-4-yl)sulfonyl)-4-(2-((R)-2-(2-isopropylphenyl)-4-(4-methoxybenzyl)piperazin-1-yl)-7-azaspiro[3.5]non-7-yl)benzamide]
COc1ccc(CN2CCN(C3CC4(CCN(c5cc(Oc6cnc7[nH]ccc7c6)c(C(=O)NS(=O)(=O)c6ccc(NC[C@H]7CC[C@](C)(O)CC7)c([N+](=O)[O-])c6)cc5F)CC4)C3)[C@H](c3ccccc3C(C)C)C2)c2c1OCCO2 [compound 228, 2-((1H-pyrrolo[2,3-b]pyrid-5-yl)oxy)-5-fluoro-N-((4-((((1r, 4r)-4-hydroxy-4-methylcyclohexyl)methyl)amino)-3-nitrophenyl)sulfonyl)-4-(2-((R)-2-(2-isopropylphenyl)-4-((8-methoxy-2,3-dihydrobenzo[b][1,4]dioxan-5-yl)methyl)piperazin-1-yl)-7-azaspiro[3.5]non-7-yl)benzamide]
CC(C)c1ccccc1C1CN(C2CCOCC2)CCN1C1CC2(C1)CN(c1ccc(C(=O)NS(=O)(=O)c3cc([N+](=O)[O-])c(NCC4(F)CCN(C(C)C)CC4)c4[nH]cnc34)c(Oc3cnc4[nH]ccc4c3)c1)C2 (stereo not drawn) [compound 044, 2-((1H-pyrrolo[2,3-b]pyrid-5-yl)oxy)-N-((7-(((4-fluoro-1-isopropylpiperid-4-yl)methyl)amino)-6-nitro-1H-benzo[d]imidazol-4-yl)sulfonyl)-4-(6-(2-(2-isopropylphenyl)-4-(tetrahydro-2H-pyran-4-yl)piperazin-1-yl)-2-azaspiro[3.3]hept-2-yl)benzamide]
COc1ccc(CN2CCN(C3CC4(CCN(c5cc(Oc6cnc7[nH]ccc7c6)c(C(=O)NS(=O)(=O)c6cc([N+](=O)[O-])c(NCC7(F)CCOCC7)c7scnc67)cn5)CC4)C3)[C@H](c3ccccc3C(C)C)C2)cc1 [compound 134, (R)-4-((1H-pyrrolo[2,3-b]pyridine-5-yl)oxy)-N-((7-(((4-fluorotetrahydro-2H-pyran-4-yl)methyl)amino)-6-nitrobenzo[d]thiazol-4-yl)sulfonyl)-6-(2-(2-(2-isopropylphenyl)-4-(4-methoxybenzyl)piperazin-1-yl)-7-azaspiro[3.5]non-7-yl) nicotinamide]
CC(C)c1ccccc1[C@@H]1CN(Cc2cnn(C(C)C)c2)CCN1C1CC2(CCN(c3cc(Oc4cnc5[nH]ccc5c4)c(C(=O)NS(=O)(=O)c4ccc(NCC5(F)CCOCC5)c([N+](=O)[O-])c4)cc3F)CC2)C1 [compound 210, (R)-2-((1H-pyrrolo[2,3-b]pyrid-5-yl)oxy)-5-fluoro-N-((4-(((4-fluorotetrahydro-2H-pyran-4-yl)methyl)amino)-3-nitrophenyl)sulfonyl)-4-(2-(4-((1-isopropyl-1H-pyrazol-4-yl)methyl)-2-(2-isopropylphenyl)piperazin-1-yl)-7-azaspiro[3.5]non-7-yl)benzamide]
COc1ccc(CN2CCN(C3CC4(CCN(c5cc(Oc6cnc7[nH]ccc7c6)c(C(=O)NS(=O)(=O)c6ccc(NC[C@H]7CC[C@](C)(O)CC7)c([N+](=O)[O-])c6)cc5F)CC4)C3)C(c3ccccc3C(C)C)C2)cc1 (stereo partly drawn) [compound 055, 2-((1H-pyrrolo[2,3-b]pyrid-5-yl)oxy)-5-fluoro-N-((4-((((1r,4r)-4-hydroxy-4-methylcyclohexyl)methyl)amino)-3-nitrophenyl)sulfonyl)-4-(2-(2-(2-isopropylphenyl)-4-(4-methoxybenzyl)piperazin-1-yl)-7-azaspiro[3.5]non-7-yl)benzamide]
COc1ccc(CN2CCN(C3CC4(CCN(c5ccc(C(=O)NS(=O)(=O)c6cc([N+](=O)[O-])c(NC[C@H]7CC[C@](C)(O)CC7)c7c6OCCO7)c(Oc6cnc7[nH]ccc7c6)c5)CC4)C3)[C@H](c3ccccc3C(C)C)C2)cc1 [compound 182, 2-((1H-pyrrolo[2,3-b]pyrid-5-yl)oxy)-N-((8-((((1r, 4r)-4-hydroxy-4-methylcyclohexyl)methyl)amino)-7-nitro-2,3-dihydrobenzo[b][1,4]dioxan-5-yl)sulfonyl)-4-(2-((R)-2-(2-isopropylphenyl)-4-(4-methoxybenzyl)piperazin-1-yl)-7-azaspiro[3.5]non-7-yl)benzamide]
CC(C)c1ccccc1[C@@H]1CN(Cc2ccc(F)cc2)CCN1C1CC2(CCN(c3cc(Oc4cnc5[nH]ccc5c4)c(C(=O)NS(=O)(=O)c4ccc(NC[C@H]5CC[C@](C)(O)CC5)c([N+](=O)[O-])c4)cc3F)CC2)C1 [compound 215, 2-((1H-pyrrolo[2,3-b]pyrid-5-yl)oxy)-5-fluoro-4-(2-((R)-4-(4-fluorobenzyl)-2-(2-isopropylphenyl)piperazin-1-yl)-7-azaspiro[3.5]non-7-yl)-N-((4-((((1r, 4r)-4-hydroxy-4-methylcyclohexyl)methyl)amino)-3-nitrophenyl)sulfonyl)benzamide]
CC(C)c1ccccc1[C@@H]1CN(Cc2ccc(C#N)cc2)CCN1C1CC2(CCN(c3cc(Oc4cnc5[nH]ccc5c4)c(C(=O)NS(=O)(=O)c4ccc(NCC5(F)CCOCC5)c([N+](=O)[O-])c4)cc3F)CC2)C1 [compound 199, (R)-2-((1H-pyrrolo[2,3-b]pyrid-5-yl)oxy)-4-(2-(4-(4-cyanobenzyl)-2-(2-isopropylphenyl)piperazin-1-yl)-7-azaspiro[3.5]non-7-yl)-5-fluoro-N-((4-(((4-fluorotetrahydro-2H-pyran-4-yl)methyl)amino)-3-nitrophenyl)sulfonyl)benzamide]
COc1ccc(CN2CCN(C3CC4(CCN(c5ccc(C(=O)NS(=O)(=O)c6cc([N+](=O)[O-])c(NC[C@H]7CC[C@](C)(O)CC7)c7[nH]cnc67)c(Oc6cnc7[nH]cc(F)c7c6)c5)CC4)C3)C(c3ccccc3C(C)C)C2)cn1 (stereo partly drawn) [compound 049, 2-((3-fluoro-1H-pyrrolo[2,3-b]pyrid-5-yl)oxy)-N-((7-((((1r,4r)-4-hydroxy-4-methylcyclohexyl)methyl)amino)-6-nitro-1H-benzo[d]imidazol-4-yl)sulfonyl)-4-(2-(2-(2-isopropylphenyl)-4-((6-methoxypyrid-3-yl)methyl)piperazin-1-yl)-7-azaspiro[3.5]non-7-yl)benzamide]
CC(C)c1ccccc1[C@@H]1CCCN1C1CC2(CCN(c3cc(Oc4cnc5[nH]ccc5c4)c(C(=O)NS(=O)(=O)c4cc([N+](=O)[O-])c(NCC5(F)CCN(CC(C)(C)C)CC5)c5[nH]cnc45)cn3)CC2)C1 [compound 025, (S)-4-((1H-pyrrolo[2,3-b]pyrid-5-yl)oxy)-N-((7-(((4-fluoro-1-neopentylpiperid-4-yl)methyl)amino)-6-nitro-1H-benzo[d]imidazol-4-yl)sulfonyl)-6-(2-(2-(2-isopropylphenyl)pyrrolidin-1-yl)-7-azaspiro[3.5]non-7-yl) nicotinamide]
